Test results as given in article PMC6594753, “Cystic fibrosis drug ivacaftor stimulates CFTR channels at picomolar concentrations” (eLife, 2019).
Like-named read-outs stand apart in the source and are kept apart here.

Key:
[1] = Thermodynamic parameters of the Vx-770 aqueous solution process; assay type: physicochemical
Procedure: As a further parameter of clinical interest, we also determined the aqueous solubility of Vx-770 at body temperature (pH = 7.1). […] The standard enthalpy of solution, estimated from the solubilities at 37°C vs. 25°C, is ΔH^osol = +51.2 kJ/mol, and the standard free energy of solution at 25°C is ΔG^osol = +41.1 kJ/mol (Materials and methods).
The standard enthalpy of solution was calculated as ΔH^osol = ((RT1T2)/(T2−T1))⋅ln(S(T2)/S(T1)), where R = 8.31 Jmol^−1K^−1, T1 = 298 K (25°C), T2 = 310 K (37°C), and S(T1) and S(T2) are the measured aqueous solubilities of Vx-770 at the respective temperatures (pH = 7.1). The standard free energy of solution at T = 298 K (25°C) was calculated as ΔG^osol = −RT⋅ln(S(T)).

[2] = biological target: T1, WT CFTR (Homo sapiens, UniProt P13569); experiment: Ensemble fitting of gating models (Schemes 3 and 4) to on-off current time courses; assay type: biochemical; conditions: for EC50 / Kd: calculated from fit parameters; for kin: constrained kin/kout = 62580; for Kd: read-out: Kd;mem
T1 construct: expressed in transfected cells; host or cells: Xenopus laevis oocytes injected with cRNA transcribed from pGEMHE-CFTR
T1 sequence (P13569 whole entry): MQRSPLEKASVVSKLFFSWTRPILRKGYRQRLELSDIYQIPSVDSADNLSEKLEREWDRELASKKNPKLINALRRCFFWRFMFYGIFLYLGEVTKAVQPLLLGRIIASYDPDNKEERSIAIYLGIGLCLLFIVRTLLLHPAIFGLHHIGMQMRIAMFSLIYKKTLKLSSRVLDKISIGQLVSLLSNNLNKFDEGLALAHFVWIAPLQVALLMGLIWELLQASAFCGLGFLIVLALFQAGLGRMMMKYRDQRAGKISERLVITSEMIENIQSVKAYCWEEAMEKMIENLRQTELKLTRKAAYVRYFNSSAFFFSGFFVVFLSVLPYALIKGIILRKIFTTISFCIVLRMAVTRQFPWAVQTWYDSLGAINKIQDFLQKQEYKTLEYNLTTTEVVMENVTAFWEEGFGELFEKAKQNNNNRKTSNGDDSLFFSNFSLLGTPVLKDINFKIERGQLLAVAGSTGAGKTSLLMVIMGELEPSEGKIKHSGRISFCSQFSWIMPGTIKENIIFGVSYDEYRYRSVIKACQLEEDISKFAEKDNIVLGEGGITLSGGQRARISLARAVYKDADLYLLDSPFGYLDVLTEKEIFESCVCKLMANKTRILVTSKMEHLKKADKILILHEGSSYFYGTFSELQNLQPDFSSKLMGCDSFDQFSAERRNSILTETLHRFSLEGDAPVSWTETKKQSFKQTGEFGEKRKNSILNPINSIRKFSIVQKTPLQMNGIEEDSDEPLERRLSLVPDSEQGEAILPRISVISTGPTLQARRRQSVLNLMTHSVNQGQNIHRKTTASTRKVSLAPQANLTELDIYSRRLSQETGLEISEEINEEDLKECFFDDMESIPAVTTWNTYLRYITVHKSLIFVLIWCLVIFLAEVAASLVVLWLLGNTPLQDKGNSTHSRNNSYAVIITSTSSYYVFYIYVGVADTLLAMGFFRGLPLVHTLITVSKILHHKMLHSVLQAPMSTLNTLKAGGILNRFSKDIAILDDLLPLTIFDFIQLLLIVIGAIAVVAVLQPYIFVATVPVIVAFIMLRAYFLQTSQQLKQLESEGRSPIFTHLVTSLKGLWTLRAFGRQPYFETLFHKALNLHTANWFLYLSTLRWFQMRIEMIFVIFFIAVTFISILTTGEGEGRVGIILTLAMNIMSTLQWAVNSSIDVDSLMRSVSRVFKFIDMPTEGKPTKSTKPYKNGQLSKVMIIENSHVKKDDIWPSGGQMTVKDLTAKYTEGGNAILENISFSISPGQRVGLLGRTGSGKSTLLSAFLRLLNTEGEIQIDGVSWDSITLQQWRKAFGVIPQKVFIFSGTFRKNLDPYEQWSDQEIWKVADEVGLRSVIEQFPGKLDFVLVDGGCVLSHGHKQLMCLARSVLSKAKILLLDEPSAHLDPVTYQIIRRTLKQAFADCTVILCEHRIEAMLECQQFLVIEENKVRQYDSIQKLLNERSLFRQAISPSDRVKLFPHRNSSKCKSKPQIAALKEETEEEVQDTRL
Description: We next attempted to interpret the observed complex kinetics of the drug effects in terms of various molecular models (Figure 5a–d), by performing global fits of each model (Figure 5f, colored lines) to the ensemble of four experimentally observed current time courses: activation and deactivation upon addition and removal of 0.01x saturated (Figure 5f, gray trace) and 1x saturated (Figure 5f, black trace) Vx-770.
An alternative mechanism that could explain delayed activation by the drug is the presence of multiple drug binding sites, all of which must be occupied to switch the channel to a high open probability state. […] We therefore evaluated a simplistic model which postulates independent drug binding to two sites, with identical affinities, but a substantial change in open probability (from Po;bas to Po;max) only for diliganded channels (Scheme 3, Figure 5c).
Finally, assuming a two-compartment membrane and two drug-binding sites, both accessible from the outer leaflet (Scheme 4, Figure 5d), afforded a further small improvement (Figure 5f, red fit lines) relative to Scheme 3, albeit at the expense of an extra free parameter (Figure 5e, right).
The dynamic equations that describe the kinetic models depicted in Figure 5 are as follows:
• dx1(t)/dt = kin⋅Vc – 2⋅kout⋅x1(t) – kon'⋅(2⋅x2(t)+x3(t))⋅x1(t) + koff⋅(2⋅(Ct–x2(t)–x3(t))+x3(t)) • dx2(t)/dt = – 2⋅kon'⋅x1(t)⋅x2(t) + koff⋅x3(t) • dx3(t)/dt = 2⋅kon'⋅x1(t)⋅x2(t) + 2⋅koff⋅(Ct–x2(t)–x3(t)) – (koff +kon'⋅x1(t))⋅x3(t)
(§1) where x1(t) is the concentration of free Vx-770 in the membrane, x2(t) is the concentration of unliganded CFTR channels in the membrane, x3(t) is the concentration of monoliganded CFTR channels in the membrane, Ct is the total concentration of CFTR channels in the membrane, and Vc is the concentration of Vx-770 in the cytosol.
• dx1(t)/dt = kin⋅Vc – (kout +kflip)⋅x1(t) + kflip⋅x2(t) • dx2(t)/dt = kflip⋅x1(t) – (kout +kflip)⋅x2(t) – kon'⋅(2⋅x3(t)+x4(t))⋅x2(t) + koff⋅(2⋅(Ct–x3(t)–x4(t))+x4(t)) • dx3(t)/dt = – 2⋅kon'⋅x2(t)⋅x3(t) + koff⋅x4(t) • dx4(t)/dt = 2⋅kon'⋅x2(t)⋅x3(t) + 2⋅koff⋅(Ct–x3(t)–x4(t)) – (koff +kon'⋅x2(t))⋅x4(t)
as §1, with “x1(t) is the concentration of Vx-770 in the inner membrane leaflet, x2(t)” for “x1(t)”, “outer membrane leaflet, x3(t)” for “membrane, x2(t)”, “outer membrane leaflet, x4(t)” for “membrane, x3(t)”, “outer membrane leaflet,” for “membrane,”
To calculate the value of Ct, the total number of channels in the patch (N) was estimated by assuming Po;bas=0.16 for prephosphorylated channels in ATP (cf., Figure 2c). For Schemes 1 and 3 the volume of the membrane patch was taken as 10^−16 liter (assuming a macroscopic patch surface area of ~4 μm^2 increased by ~5 fold at a microscopic level due to the presence of microvilli ([Dascal, 1987]), and a membrane thickness of ~5 nm), and for Schemes 2 and 4 the volume of the outer membrane leaflet was taken as 5⋅10^−17 liter. Ct was then calculated as N/NA divided by the relevant volume (NA, Avogadro's number).
For the ensemble fitting, all experimental current traces were normalized to their steady-state values observed prior to exposure to Vx-770. Predicted normalized on- and off- current time courses for each model were calculated from the above dynamic equations by solving for the time-dependent evolution of the vector x, using a modified Euler's method ([Press, 1992]). For the on- time courses the initial values for all xi were set to zero, for the off- time courses the final x vector of the preceding on- time course served as the initial vector while Vc was set to zero. […]

[3] = Scheme 3, average of global fits to three pairs of time courses
[4] = Scheme 4, average of global fits to three pairs of time courses

CC(C)(C)c1cc(C(C)(C)C)c(NC(=O)c2c[nH]c3ccccc3c2=O)cc1O [Vx-770, ivacaftor]
TΔS^osol ([1]; 25°C): +10.1 kJ/mol | standard free energy of solution ΔG^osol ([1]; 25°C): +41.1 kJ/mol | standard enthalpy of solution ΔH^osol ([1]; from aqueous solubilities at 37°C vs. 25°C, pH 7.1): +51.2 kJ/mol | EC50 ([2]; Scheme 3, Figure 5f data set, read-out: K0.5;aq): 0.74 nM | kin ([2]; Scheme 3, average (mean ± S.E.M.) of global fits to three pairs of time courses): 4034 ± 464 s⁻¹ | Po;max/Po;bas [2, 3]: 3.935 ± 0.001 | koff [2, 3]: 0.00745 ± 0.000871 s⁻¹ | kon [2, 3]: 870 ± 104 M⁻¹ s⁻¹ | kout [2, 3]: 0.06446 ± 0.00742 s⁻¹ | EC50 ([2]; Scheme 3, average of three fits, read-out: K0.5;aq): 0.675 ± 0.0895 nM | EC50 ([2]; Scheme 3, average of three fits, read-out: K0.5;mem): 21100 ± 2800 nM | Kd ([2]; Scheme 3, average of three fits): 8750 ± 1160 nM | koff ([2]; Scheme 3, global fit to data set of Figure 5f): 0.00651 s⁻¹ | EC50 ([2]; Scheme 4, Figure 5f data set, read-out: K0.5;aq): 0.72 nM | kin ([2]; Scheme 4, average (mean ± S.E.M.) of global fits to three pairs of time courses): 9794 ± 531 s⁻¹ | Po;max/Po;bas [2, 4]: 3.996 ± 0.007 | kflip [2, 4]: 0.04408 ± 0.00583 s⁻¹ | koff [2, 4]: 0.01075 ± 9e-05 s⁻¹ | kon [2, 4]: 3700 ± 627 M⁻¹ s⁻¹ | kout [2, 4]: 0.1565 ± 0.0085 s⁻¹ | EC50 ([2]; Scheme 4, average of three fits, read-out: K0.5;aq): 0.669 ± 0.0955 nM | EC50 ([2]; Scheme 4, average of three fits, read-out: K0.5;mem): 7500 ± 1460 nM | Kd ([2]; Scheme 4, average of three fits): 3110 ± 605 nM | koff ([2]; Scheme 4, global fit to data set of Figure 5f): 0.0106 s⁻¹
